The values below come from the supplement of paper PMC10627819.

Holding throughout (experiment): Bliss interaction score (quartile over a dose matrix) (fitness difference); higher = more antagonism (negative = synergy)
In assay [1] the test system is S. aureus DSM 20231. In outline: (§1)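 Each OD595 reading at entry into stationary phase was scaled to the robust mean of the untreated wells on its plate, with a ceiling of 1. These ratios define fitness, and single-drug fitness was inferred from combinations. The Bliss score compares observed fitness with the product-based expectation and is reported as quartiles across all replicate types, technical, biological and donor/recipient.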

The test system of assay [2] is B. subtilis 168. The essentials: as §1
Assay [3] has as its system S. aureus Newman. The essentials: as §1
The test system of assay [4] is S. pneumoniae D39V. In outline: as §1
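Also: first quartile when negative (synergy) and third quartile when positive (antagonism).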

Turning to `CN(C)[C@@H]1C(O)=C(C(N)=O)C(=O)[C@@]2(O)C(O)=C3C(=O)c4c(O)ccc(Cl)c4[C@@](C)(O)[C@H]3C[C@@H]12` [Clortetracycline] + CN[C@@H]1[C@H](O)[C@H](NC)[C@H]2O[C@@]3(O)C(=O)C[C@@H](C)O[C@H]3O[C@@H]2[C@H]1O [Spectinomycin], the Bliss interaction score in assay [1] was -0.0598; in assay [2], -0.0478; in assay [3], -0.0716; in assay [4], 0.0439.

In the case of `CN(C)[C@@H]1C(O)=C(C(N)=O)C(=O)[C@@]2(O)C(O)=C3C(=O)c4c(O)ccc(Cl)c4[C@@](C)(O)[C@H]3C[C@@H]12` [Clortetracycline] + CN[C@@H]1[C@H](O[C@H]2[C@H](O[C@H]3[C@H](O)[C@@H](O)[C@H](N=C(N)N)[C@@H](O)[C@@H]3N=C(N)N)O[C@@H](C)[C@]2(O)C=O)O[C@@H](CO)[C@H](O)[C@H]1O [Streptomycin], the Bliss interaction score is -0.0487 in assay [1], 0.156 in assay [2], -0.0515 in assay [3] and -0.0408 in assay [4].

For the compound `CN(C)[C@@H]1C(O)=C(C(N)=O)C(=O)[C@@]2(O)C(O)=C3C(=O)c4c(O)ccc(Cl)c4[C@@](C)(O)[C@H]3C[C@@H]12` [Clortetracycline] + CN[C@H](CC(C)C)C(=O)N[C@H]1C(=O)N[C@@H](CC(N)=O)C(=O)N[C@H]2C(=O)N[C@H]3C(=O)N[C@H](C(=O)N[C@H](C(=O)O)c4cc(O)cc(O)c4-c4cc3ccc4O)[C@H](O)c3ccc(c(Cl)c3)Oc3cc2cc(c3O[C@@H]2O[C@H](CO)[C@@H](O)[C@H](O)[C@H]2O[C@H]2C[C@](C)(N)[C@H](O)[C@H](C)O2)Oc2ccc(cc2Cl)[C@H]1O [Vancomycin], the Bliss interaction score was -0.0315 in assay [1], -0.0454 in assay [2], 0.0562 in assay [3] and 0.0542 in assay [4].

In the case of `CN(C)[C@@H]1C(O)=C(C(N)=O)C(=O)[C@@]2(O)C(O)=C3C(=O)c4c(O)ccc(Cl)c4[C@@](C)(O)[C@H]3C[C@@H]12` [Clortetracycline] + CN[C@H](CC(C)C)C(=O)N[C@H]1C(=O)N[C@@H](CC(N)=O)C(=O)N[C@H]2C(=O)N[C@H]3C(=O)N[C@H](C(=O)N[C@H](C(=O)O)c4cc(O)cc(O)c4-c4cc3ccc4O)[C@H](O[C@H]3C[C@](C)(N)[C@@H](O)[C@H](C)O3)c3ccc(c(Cl)c3)Oc3cc2cc(c3O[C@@H]2O[C@H](CO)[C@@H](O)[C@H](O)[C@H]2O[C@H]2C[C@](C)(NCc3ccc(-c4ccc(Cl)cc4)cc3)[C@@H](O)[C@H](C)O2)Oc2ccc(cc2Cl)[C@H]1O [Oritavancin], the Bliss interaction score in assay [1] was -0.0292; in assay [2], -0.0243; in assay [3], 0.0708; in assay [4], 0.073.

As to `CN(C)[C@@H]1C(O)=C(C(N)=O)C(=O)[C@@]2(O)C(O)=C3C(=O)c4c(O)ccc(Cl)c4[C@@](C)(O)[C@H]3C[C@@H]12` [Clortetracycline] + CO[C@@H]1[C@@H](OC(N)=O)[C@@H](O)[C@H](Oc2ccc3c(O)c(NC(=O)c4ccc(O)c(CC=C(C)C)c4)c(=O)oc3c2C)OC1(C)C [Novobiocin], the Bliss interaction score in assay [1] was found to be 0.104; in assay [2] it was 0.0909; in assay [3] it was 0.0791; in assay [4], 0.192.

As for `CN(C)[C@@H]1C(O)=C(C(N)=O)C(=O)[C@@]2(O)C(O)=C3C(=O)c4c(O)ccc(Cl)c4[C@@](C)(O)[C@H]3C[C@@H]12` [Clortetracycline] + CO[C@@]12[C@H](COC(N)=O)C3=C(C(=O)C(C)=C(N)C3=O)N1C[C@@H]1N[C@@H]12 [MitomycinC], the Bliss interaction score is -0.0551 in assay [1], 0.0447 in assay [2], 0.104 in assay [3] and -0.0402 in assay [4].

As to `CN(C)[C@@H]1C(O)=C(C(N)=O)C(=O)[C@@]2(O)C(O)=C3C(=O)c4c(O)ccc(Cl)c4[C@@](C)(O)[C@H]3C[C@@H]12` [Clortetracycline] + CO[C@H]1/C=C/O[C@@]2(C)Oc3c(C)c(O)c4c(O)c(c(/C=N/N5CCN(C)CC5)c(O)c4c3C2=O)NC(=O)/C(C)=C\C=C\[C@H](C)[C@H](O)[C@@H](C)[C@@H](O)[C@@H](C)[C@H](OC(C)=O)[C@@H]1C [Rifampicin], the Bliss interaction score was -0.0529 in assay [1], -0.26 in assay [2], 0.0541 in assay [3] and 0.0664 in assay [4].

On to `CN(C)[C@@H]1C(O)=C(C(N)=O)C(=O)[C@@]2(O)C(O)=C3C(=O)c4c(O)ccc(Cl)c4[C@@](C)(O)[C@H]3C[C@@H]12` [Clortetracycline] + COc1c(N2C[C@@H]3CCCN[C@@H]3C2)c(F)cc2c(=O)c(C(=O)O)cn(C3CC3)c12 [Moxifloxacin], for which the Bliss interaction score in assay [1] is 0.119; in assay [2], -0.0182; in assay [3], 0.101; in assay [4], 0.0374.

Regarding `CN(C)[C@@H]1C(O)=C(C(N)=O)C(=O)[C@@]2(O)C(O)=C3C(=O)c4c(O)ccc(Cl)c4[C@@](C)(O)[C@H]3C[C@@H]12` [Clortetracycline] + COc1cc(Cc2cnc(N)nc2N)cc(OC)c1OC [Trimethoprim], the Bliss interaction score in assay [1] was 0.0736; in assay [2], 0.135; in assay [3], 0.102; in assay [4], -0.0376.

For `CN(C)[C@@H]1C(O)=C(C(N)=O)C(=O)[C@@]2(O)C(O)=C3C(=O)c4c(O)ccc(Cl)c4[C@@](C)(O)[C@H]3C[C@@H]12` [Clortetracycline] + COc1ccc(C[C@H](N)C(=O)N[C@H]2[C@@H](O)[C@H](n3cnc4c(N(C)C)ncnc43)O[C@@H]2CO)cc1 [Puromycin], the Bliss interaction score in assay [1] is -0.0681; in assay [2], -0.0605; in assay [3], -0.0798; in assay [4], -0.0852.

With `CN(C)[C@@H]1C(O)=C(C(N)=O)C(=O)[C@@]2(O)C(O)=C3C(=O)c4c(O)ccc(Cl)c4[C@@](C)(O)[C@H]3C[C@@H]12` [Clortetracycline] + COc1cccc2c1C(=O)c1c(O)c3c(c(O)c1C2=O)C[C@@](O)(C(=O)CO)C[C@@H]3O[C@H]1C[C@H](N)[C@H](O)[C@H](C)O1 [Doxorubicin], the Bliss interaction score was 0.0615 in assay [1], 0.0883 in assay [2], -0.0472 in assay [3] and -0.182 in assay [4].

`CN(C)[C@@H]1C(O)=C(C(N)=O)C(=O)[C@@]2(O)C(O)=C3C(=O)c4c(O)ccc(Cl)c4[C@@](C)(O)[C@H]3C[C@@H]12` [Clortetracycline] + C[C@@H]1O[C@@H]1P(=O)(O)O [Fosfomycin]: the Bliss interaction score in assay [1] was -0.158; in assay [2] it was 0.0913; in assay [3], -0.161; in assay [4] it was 0.0517.

For the compound `CN(C)[C@@H]1C(O)=C(C(N)=O)C(=O)[C@@]2(O)C(O)=C3C(=O)c4c(O)ccc(Cl)c4[C@@](C)(O)[C@H]3C[C@@H]12` [Clortetracycline] + C[C@@H](O)[C@H]1C(=O)N2C(C(=O)O)=C(SCCNC=N)C[C@H]12 [Imipenem], the Bliss interaction score is 0.039 in assay [1], 0.194 in assay [2], 0.0268 in assay [3] and -0.0487 in assay [4].

For `CN(C)[C@@H]1C(O)=C(C(N)=O)C(=O)[C@@]2(O)C(O)=C3C(=O)c4c(O)ccc(Cl)c4[C@@](C)(O)[C@H]3C[C@@H]12` [Clortetracycline] + C[C@H]1COc2c(N3CCN(C)CC3)c(F)cc3c(=O)c(C(=O)O)cn1c23 [Levofloxacin], the Bliss interaction score amounted to 0.115 in assay [1], 0.035 in assay [2], 0.0876 in assay [3] and 0.0525 in assay [4].
